Results from ChEMBL document CHEMBL5335822, “Identification of benzothiazole derived monosaccharides as potent, selective, and orally bioavailable inhibitors of human and mouse galectin-3; a rare example of using a S···O binding interaction for drug design” (Bioorg Med Chem, 2024).

Columns and labels:
Galectin-3 [1] = target: Galectin-3 (Homo sapiens, UniProt P17931); assay: Inhibition of human Galectin-3
Galectin-3 [2] = target: Galectin-3 (Mus musculus, UniProt P16110); assay: Inhibition of mouse Galectin-3
[3] = Permeability of the compound at pH 5.5 incubated for 4 hrs by PAMPA based SpectraMax UV-plate reader analysis; type: ADME; details: read-out: permeability
[4] = Permeability of the compound at pH 7.4 incubated for 4 hrs by PAMPA based SpectraMax UV-plate reader analysis; type: ADME; details: read-out: permeability
Galectin-1 = Galectin-1 (Homo sapiens, UniProt P09382); assay: Inhibition of human Galectin-1
Galectin-9 = Galectin-9 (Homo sapiens, UniProt O00182); assay: Inhibition of human Galectin-9
Homo sapiens [5] = species on record: Homo sapiens; assay: Selectivity ratio of IC50 for inhibition of human Galectin-1 to IC50 for inhibition of human Galectin-3
Homo sapiens [6] = species on record: Homo sapiens; assay: Selectivity ratio of IC50 for inhibition of human Galectin-9 to IC50 for inhibition of human Galectin-3
[7] = Cmax in mouse at 10 mg/kg,po administration; type: ADME, organism-based; design: dose 10 mg/kg, route po; details: in vivo
[8] = AUC in mouse at 10 mg/kg,po administration; type: ADME, organism-based; design: dose 10 mg/kg, route po; details: in vivo
[9] = Clearance in mouse at 10 mg/kg,po administration; type: ADME, organism-based; details: in vivo
[10] = Volume of distribution at steady state in mouse at 10 mg/kg,po administration; type: ADME, organism-based; details: in vivo
[11] = Oral bioavailability in mouse at 10 mg/kg administration; type: ADME, organism-based; details: in vivo

Galectin-3 (Mus musculus, UniProt P16110), sequence (P16110 whole entry): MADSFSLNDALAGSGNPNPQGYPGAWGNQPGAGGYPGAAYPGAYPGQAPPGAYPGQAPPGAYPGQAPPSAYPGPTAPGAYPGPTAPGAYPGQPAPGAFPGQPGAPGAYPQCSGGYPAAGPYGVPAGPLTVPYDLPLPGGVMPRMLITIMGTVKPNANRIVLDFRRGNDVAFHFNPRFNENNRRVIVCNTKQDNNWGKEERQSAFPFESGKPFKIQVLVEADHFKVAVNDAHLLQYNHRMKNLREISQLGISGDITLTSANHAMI
Galectin-3 (Homo sapiens, UniProt P17931), sequence (P17931 whole entry): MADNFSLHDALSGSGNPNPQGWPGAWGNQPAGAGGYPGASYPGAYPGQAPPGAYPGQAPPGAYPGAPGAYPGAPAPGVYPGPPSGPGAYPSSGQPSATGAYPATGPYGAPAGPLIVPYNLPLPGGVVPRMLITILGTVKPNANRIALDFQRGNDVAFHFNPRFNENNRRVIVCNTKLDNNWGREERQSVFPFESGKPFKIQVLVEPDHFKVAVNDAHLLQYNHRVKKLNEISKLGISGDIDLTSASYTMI
Galectin-1, sequence (P09382 whole entry): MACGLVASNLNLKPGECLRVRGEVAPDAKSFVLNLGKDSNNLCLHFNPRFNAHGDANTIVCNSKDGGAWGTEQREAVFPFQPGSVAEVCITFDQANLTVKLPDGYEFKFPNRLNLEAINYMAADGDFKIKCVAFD
Galectin-9, sequence (O00182 whole entry): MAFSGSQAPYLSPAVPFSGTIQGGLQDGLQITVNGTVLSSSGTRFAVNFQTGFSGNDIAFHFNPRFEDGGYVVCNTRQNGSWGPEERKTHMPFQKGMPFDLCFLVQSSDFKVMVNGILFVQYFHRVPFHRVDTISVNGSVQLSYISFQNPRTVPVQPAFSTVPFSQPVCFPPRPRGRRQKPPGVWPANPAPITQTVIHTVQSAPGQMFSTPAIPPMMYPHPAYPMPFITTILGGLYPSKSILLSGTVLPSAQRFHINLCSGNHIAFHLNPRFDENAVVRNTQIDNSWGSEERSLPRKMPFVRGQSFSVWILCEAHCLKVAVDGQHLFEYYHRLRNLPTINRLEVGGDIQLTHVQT

| SMILES | IC50 (Galectin-3 [1]) | IC50 (Galectin-3 [2]) | Papp at 4 h [3] | Papp at 4 h [4] | also measured |
| --- | --- | --- | --- | --- | --- |
| Cc1nc2cc(C)c(-n3ncnc3[C@@H]3O[C@H](CO)[C@H](O)[C@H](n4cc(-c5cc(F)c(F)c(F)c5)nn4)[C@H]3O)cc2s1 | 52 nM | 1200 nM |  |  |  |
| CO[C@@H]1[C@@H](n2cc(-c3cc(F)c(Cl)c(F)c3)nn2)[C@@H](O)[C@@H](CO)O[C@H]1C(=O)N(C)c1ccc2ncsc2c1 |  | 178 nM | 16 ×10⁻⁶ cm/s | 16.7 ×10⁻⁶ cm/s |  |
| CO[C@@H]1[C@@H](n2cc(-c3cc(F)c(Br)c(F)c3)nn2)[C@@H](O)[C@@H](CO)O[C@H]1C(=O)N(C)c1ccc2ncsc2c1 |  | 206 nM | 57.8 ×10⁻⁶ cm/s | 53.8 ×10⁻⁶ cm/s |  |
| Cc1nc([C@@H]2O[C@H](CO)[C@H](O)[C@H](n3cc(-c4cc(F)c5ccccc5c4)nn3)[C@H]2O)n(-c2ccc3ncsc3c2)n1 | 22 nM | 179 nM | 9 ×10⁻⁶ cm/s | 13.7 ×10⁻⁶ cm/s |  |
| CO[C@@H]1[C@@H](n2cc(-c3cc(F)c(F)c(F)c3)nn2)[C@@H](O)[C@@H](CO)O[C@H]1C(=O)N(C)c1ccc2ncsc2c1 |  | 504 nM | 14.4 ×10⁻⁶ cm/s | 17.2 ×10⁻⁶ cm/s | IC50 (Galectin-1): 3250 nM; IC50 (Galectin-9): 9970 nM |
| CCN(C(=O)[C@@H]1O[C@H](CO)[C@H](O)[C@H](n2cc(-c3cc(F)c(Cl)c(F)c3)nn2)[C@H]1OC)c1ccc2ncsc2c1 |  | 429 nM |  |  |  |
| Cc1nc([C@@H]2O[C@H](CO)[C@H](O)[C@H](n3cc(-c4cc(F)c(F)c(F)c4)nn3)[C@H]2O)n(-c2ccc3ncsc3c2)n1 | 28 nM | 536 nM | 1.5 ×10⁻⁶ cm/s | 3.9 ×10⁻⁶ cm/s |  |
| OC[C@H]1O[C@@H](c2ncnn2-c2ccc3ncsc3c2)[C@H](O)[C@@H](n2cc(-c3cc(F)c(F)c(F)c3)nn2)[C@H]1O | 37 nM | 939 nM |  |  |  |
| CO[C@@H]1[C@@H](n2cc(-c3cc(F)c(Cl)c(F)c3)nn2)[C@@H](O)[C@@H](CO)O[C@H]1C(=O)Nc1ccc2ncsc2c1 | > 10000 nM | > 30000 nM |  |  |  |
| CO[C@@H]1[C@@H](n2cc(-c3cc(F)c(F)c(F)c3)nn2)[C@@H](O)[C@@H](CO)O[C@H]1C(=O)N(C)c1ccc2nc(C)sc2c1 |  | 2510 nM | 29.8 ×10⁻⁶ cm/s | 18.6 ×10⁻⁶ cm/s |  |
| Cc1nc2ccc(-n3ncnc3[C@@H]3O[C@H](CO)[C@H](O)[C@H](n4cc(-c5cc(F)c(F)c(F)c5)nn4)[C@H]3O)cc2s1 | 63 nM | 1220 nM |  |  |  |
| CO[C@H]1C(C(=O)N(C)c2ccc3ncsc3c2)O[C@H](CO)[C@H](O)[C@@H]1n1cc(-c2ccc(Cl)c(F)c2F)nn1 (single isomer, unassigned) |  | 169 nM | 29.4 ×10⁻⁶ cm/s | 29.5 ×10⁻⁶ cm/s | IC50 (Galectin-1): 1580 nM; IC50 (Galectin-9): 2750 nM; Cmax [7]: 3100 nM; AUC [8]: 13 µM·h; CL/F [9]: 12 mL/min/kg; Vdss [10]: 2.1 L/kg; bioavailability [11]: 52% |
| Cc1nc2ccc(N(C)C(=O)[C@@H]3O[C@H](CO)[C@H](O)[C@H](n4cc(-c5cc(F)c(F)c(F)c5)nn4)[C@H]3O)cc2s1 |  | 3510 nM | 1.9 ×10⁻⁶ cm/s | 0.8 ×10⁻⁶ cm/s |  |
| Cc1nc2cc(Cl)c(-n3ncnc3[C@@H]3O[C@H](CO)[C@H](O)[C@H](n4cc(-c5cc(F)c(F)c(F)c5)nn4)[C@H]3O)cc2s1 | 71 nM | 1310 nM |  |  |  |

Now those with a lower IC50 (Galectin-3 [2]), led by results:

| IC50 (Galectin-3 [1]) | IC50 (Galectin-3 [2]) | Papp at 4 h [3] | Papp at 4 h [4] | SMILES | also measured |
| --- | --- | --- | --- | --- | --- |
| 11 nM | 84 nM | 73.1 ×10⁻⁶ cm/s | 80.2 ×10⁻⁶ cm/s | CO[C@@H]1[C@@H](n2cc(-c3ccc(Cl)c(F)c3F)nn2)[C@@H](O)[C@@H](CO)O[C@H]1c1nc(C)nn1-c1ccc2ncsc2c1 | IC50 (Galectin-1): 2720 nM; IC50 (Galectin-9): 3530 nM; Ratio IC50 (Homo sapiens [5]): 247; Ratio IC50 (Homo sapiens [6]): 321; Cmax [7]: 4300 nM; AUC [8]: 14 µM·h; CL/F [9]: 8 mL/min/kg; Vdss [10]: 1.8 L/kg; bioavailability [11]: 40% |
| 7.2 nM | 45 nM | 30.7 ×10⁻⁶ cm/s | 30.1 ×10⁻⁶ cm/s | Cc1nc([C@@H]2O[C@H](CO)[C@H](O)[C@H](n3cc(-c4ccc(Br)c(F)c4F)nn3)[C@H]2O)n(-c2ccc3ncsc3c2)n1 | IC50 (Galectin-1): 2600 nM; IC50 (Galectin-9): 2110 nM; Ratio IC50 (Homo sapiens [5]): 361; Ratio IC50 (Homo sapiens [6]): 293; Cmax [7]: 600 nM; AUC [8]: 3 µM·h |
| 30 nM | 150 nM |  |  | CO[C@@H]1[C@@H](n2cc(-c3cc(F)c(Br)c(F)c3)nn2)[C@@H](O)[C@@H](CO)O[C@H]1c1nc(C)nn1-c1ccc2ncsc2c1 |  |
|  | 95 nM | 27.9 ×10⁻⁶ cm/s | 26.9 ×10⁻⁶ cm/s | CO[C@@H]1[C@@H](n2cc(-c3ccc(Br)c(F)c3F)nn2)[C@@H](O)[C@@H](CO)O[C@H]1C(=O)N(C)c1ccc2ncsc2c1 |  |
| 8.8 nM | 86 nM | 24.1 ×10⁻⁶ cm/s | 16.3 ×10⁻⁶ cm/s | Cc1nc([C@@H]2O[C@H](CO)[C@H](O)[C@H](n3cc(-c4ccc(Cl)c(F)c4F)nn3)[C@H]2O)n(-c2ccc3ncsc3c2)n1 | IC50 (Galectin-1): 3830 nM; IC50 (Galectin-9): 3010 nM; Ratio IC50 (Homo sapiens [5]): 435; Ratio IC50 (Homo sapiens [6]): 342 |
|  | 150 nM | 59.1 ×10⁻⁶ cm/s |  | CO[C@@H]1[C@@H](n2cc(-c3cc(F)c(Cl)c(F)c3)nn2)[C@@H](O)[C@@H](CO)O[C@H]1c1nc(C)nn1-c1ccc2ncsc2c1 |  |
|  | 61 nM | 104 ×10⁻⁶ cm/s |  | CO[C@@H]1[C@@H](n2cc(-c3ccc(Br)c(F)c3F)nn2)[C@@H](O)[C@@H](CO)O[C@H]1c1nc(C)nn1-c1ccc2ncsc2c1 | IC50 (Galectin-1): 3520 nM; IC50 (Galectin-9): 2420 nM; Ratio IC50 (Homo sapiens [5]): 271; Ratio IC50 (Homo sapiens [6]): 186; Cmax [7]: 1800 nM; AUC [8]: 8.7 µM·h |
|  | 144 nM | 5.2 ×10⁻⁶ cm/s | 4.8 ×10⁻⁶ cm/s | Cc1nc([C@@H]2O[C@H](CO)[C@H](O)[C@H](n3cc(-c4cc(F)c(Br)c(F)c4)nn3)[C@H]2O)n(-c2ccc3ncsc3c2)n1 |  |
| 18 nM | 151 nM | 10.4 ×10⁻⁶ cm/s |  | Cc1nc([C@@H]2O[C@H](CO)[C@H](O)[C@H](n3cc(-c4cc(F)c(Cl)c(F)c4)nn3)[C@H]2O)n(-c2ccc3ncsc3c2)n1 |  |
